Marks after values point to notes of the source that are not given here.
Tests used:
[1] = test system: panel of 91 tumor cell lines; assay: Growth inhibition across various cancer indications; type: cell-based; details: more than 18 tumor indications, no ABC-DLBCL lines
Excerpt: The panel represents cancer cell lines from more than 18 different tumor indications, including breast, colon, lung, ovarian, and blood cancers.

[2] = Oral bioavailability, 5 mg/kg solution in PEG400; type: in vivo, mice, rats, dogs, and monkeys; details: plasma, oral 5 mg/kg
Excerpt: (Data for mice, rats, and monkeys are not shown.)

Single IV dose plasma PK = type: in vivo, monkey
Method: Single intravenous (IV) dose PK was conducted in mice (two strains), rats, monkeys, and dogs at a dose of 1 mg/kg in 70% PEG400 (PEG400/water 70:30) by bolus injection. The time course for plasma sample was optimized to fully characterize the disposition profile in each species. PK analysis was by non-compartmental method.

[3] = test system: IL-10 secretion by OCI-LY3 ABC-DLBCL cells; assay: IL-10 secretion assay (MesoScale Discovery); type: cell-based; details: Homo sapiens; supernatants of OCI-LY3 cells, 16 independent experiments
Method: NF-κB signaling regulates the secretion of multiple cytokines, including interleukin (IL)-6 and IL-10. Libermann T A et al. Mol Cell Biol. 1990; 10(6):3155-3162; and Cao S, et al. J Biol Chem. 2006; 281(36):26041-26050. Secretion of the cytokines IL-6 and IL-10 by OCI-LY3 ABC-DLBCL cells was measured using a MesoScale Discovery (MSD) assay.

[4] = Serum and tumor levels after a single oral dose in male OCI-LY3 tumor-bearing NSG mice; type: in vivo; details: 100 mg/kg single oral dose, PEG400 solution, mean (SD)
Method: (§1) For PD, when tumors reached 550-750 mm^3 animals were assigned randomly into the treatment groups and treated as presented in Table 5. Dose volumes were adjusted to individual body weights at 10 mL/kg. For both PD studies, serum was collected at 2 and 12 hours post treatment from the retro-orbital sinus. At 24 hours post treatment, animals were bled via decapitation and tumors were excised, weighed, and divided for bioanalysis and ex vivo PD analysis. Blood was centrifuged at 10,000 rpm and serum divided for bioanalysis and PD analysis.
Serum samples were collected at 2, 12, and 24 hours post dose and tumor samples were collected 24 hours post dose.

primary T cells = assay: Treg/Teff ratio after CD3/28 stimulation of primary T cells (flow cytometry); type: cell-based, human; details: compound added 24 hours after CD3/28 stimulation, for 72 hours
Excerpt: The role of MALT1 in the immunologic activity of T cells was investigated by looking at the proportions of Treg and effector T cells (Teff). These cells are in a dynamic balance and their ratio correlates with the effectiveness of protective immunity. An accumulation of Tregs, resulting in a higher Treg/Teff ratio within tumor tissue, is associated with worse prognosis in cancer. Whiteside T L. What are regulatory T cells (Treg) regulating in cancer and why? Semin Cancer Biol. 2012, 22, 327-34. In vitro, activation of T cells through TCR stimulation increases the Treg/Teff ratio by increasing the Treg population, as defined by CD4^+CD25^hiFOXP3^hi.
After 24 hours of pre-stimulation, the compound was added for 72 hours. Alternatively, the compound was added together with the CD3/28 stimulus for 96 hours. Cells were stained for flow cytometric analysis (BD Facs Verse). After gating on the living singlet population, the proportions of CD8^+ Teff and CD4^+CD25^hiFOXP3^hi Treg subpopulations were analysed.

[5] = test system: HLY-1 (Myd88/CARD11/homoz A20 mut); assay: Anti-proliferative activity, DLBCL cell line panel; type: cell-based; details: 192 h; antiproliferation after 8 days of treatment
MALT1 substrate BCL10 = assay: BCL10 Mesoscale assay of OCI-LY3 tumor samples after a single dose; type: in vivo, NSG mice; details: OCI-LY3 tumors
Method: MALT1 protease activity results in the cleavage of negative regulators of the classical NF-κB pathway such as A20, CYLD, RelB, and BCL10. […] The assay measures un-cleaved BCL10 which is increased upon MALT1 inhibition. OCI-LY3 or OCI-LY10 tumors were crushed before lysis in Mammalian Protein Extraction Reagent buffer for 30 minutes at 4° C. Centrifugation of the lysate was done and supernatant kept for analysis in the MSD assay. MSD plates (small spot, goat anti-rabbit coated, MSD L45RA-1) were blocked for 1 hour with 3% Bovine serum Albumin (in Tris-buffered saline, 0.1% Tween 20) and labeled with BCL10 antibody (Abcam #33905) to capture the uncleaved BCL10. 25 μg of tumor lysates were transferred to the BCL 10-labeled MSD plate and incubated for 24 hours at 4° C. followed by 2-hour incubation with BCL10 antibody detecting cleaved/uncleaved BCL10 (ab93022) and 2-hour antibody detection. Plates were read on a SECTOR imager.
As a more direct PD readout, OCI-LY3 tumor samples were analyzed by a BCL 10 Mesoscale assay, looking for cleavage inhibition of the MALT1 substrate BCL10. The assay measures uncleaved BCL10 in tumor.
Tumor uncleaved BCL10 levels are graphed as the mean+SD.
For PD, when tumors reached 550-750 mm^3 animals were assigned randomly into the treatment groups and treated as presented in Table 5. Dose volumes were adjusted to individual body weights at 10 mL/kg. […]

[6] = test system: human cytokine IL-10 in serum; assay: Serum IL-10 (MSD assay) after a single dose in OCI-LY10 tumor-bearing NSG mice; type: in vivo
Method: NF-κB signaling regulates the secretion of multiple cytokines, including interleukin-10 (IL-10). MALT1 inhibition results in a decrease of IL-10 transcription and translation as well as secretion. Levels of the human cytokine IL-10 were measured in the serum of OCI-LY3 or OCI-LY10 ABC-DLBCL tumor bearing mice using a Mesoscale Discovery assay (MSD). 25 μL of mouse serum was transferred to an MSD plate (V-Plex Proinflammation Panel I (human) kit) and incubated together with 25 μL diluent 2 (MSD; R51BB-3) for 2 hours at RT followed by a 2-hour incubation with IL-10 antibody solution. Plates were read on a SECTOR imager. Serum human IL-10 levels were correlated to serum compound concentration.
Serum samples were collected at 2, 12, and 24 hours post dose and tumor samples were collected 24 hours post dose. Human IL-10 was measured in serum samples using a Mesoscale assay.
Serum IL-10 levels are graphed as the mean+/−standard deviation.
as §1

[7] = male, plasma, Monkey, cynomolgus, 3M, 1 mg/kg IV in 70% PEG400, mean

With `O=C(Nc1ccnc(C(F)(F)F)c1)c1cnn(-c2cccc3c(=O)[nH]ccc23)c1C(F)(F)F` [Compound A, 1-(1-oxo-1,2-dihydroisoquinolin-5-yl)-5-(trifluoromethyl)-N-[2-(trifluoromethyl)pyridin-4-yl]-1H-pyrazole-4-carboxamide] the “sensitivity of tumor cell lines (cell viability)” value [1] was “no single cell lines showing sensitivity to Compound A up to 20 μM”, the bioavailability ([2]; Sprague-Dawley, rat, rats) was 51.2% and the bioavailability ([2]; beagle, dog, dogs) was 100%. It also gave a bioavailability ([2]; mouse, rat, dog, monkey, all species (mice, rats, dogs, monkeys)) of over 50%, an AUC(0-inf) (Single IV dose plasma PK; [7]) of 16400 ng·h/mL and a C0 (Single IV dose plasma PK; [7]) of 1840 ng/mL. It also gave a clearance (Single IV dose plasma PK; [7]) of 1.12 mL/min/kg, a half-life (Single IV dose plasma PK; [7]) of 11.9 h and a Vd (Single IV dose plasma PK; male, plasma, Monkey, cynomolgus, 3M, 1 mg/kg IV in 70% PEG400, mean, read-out: Vdss) of 0.748 L/kg. The “CL as fraction of liver blood flow (LBF)” value (Single IV dose plasma PK; monkey, LBF 43.6 mL/min/kg) was 1.7%, the IC50 [3] was 0.077 ± 0.024 µM and the Serum concentration ([4]; 12 h post dose) was 4,118 (1,322 ng/ml. For the same molecule, the Tumor concentration ([4]; 24 h post dose, N = 4) was 1,180 (223)^b ng/g, the concentration at 2 h ([4]; male, NSG, mouse, serum, 2 h post dose) was 3730 ng/mL and the concentration at 24 h ([4]; male, NSG, mouse, serum, 24 h post dose) was 1060 ng/mL. For the same molecule, the “effect on Treg and Teff populations” value (primary T cells) was “did not influence the Treg and Ter populations”, the IC50 [5] was 8.8 µM and the “dose giving maximum levels of uncleaved BCL10” value (MALT1 substrate BCL10) was at least 10 mg/kg. The “fraction of uncleaved BCL10 in tumor” value (MALT1 substrate BCL10) was “dose-dependently increased the fraction of uncleaved BCL10”, the “effect of adding precipitation inhibitor on exposure and PD” value ([6]; 100 mg/kg plus precipitation inhibitor PVP/VA64, 24 hours) was “increased exposures correlating to increased PD shutdown at 24 hours” and the “inhibition or reduction of serum IL-10” value ([6]; single oral dose 3 mg/kg, 12 hours post dose) was “intermediate inhibition or reduction”. For the same molecule, the “inhibition or reduction of serum IL-10” value ([6]; single oral dose 10 mg/kg, 12 hours post dose) was “strong inhibition or reduction”, the “inhibition or reduction of serum IL-10” value ([6]; single oral dose 30 mg/kg, 12 hours post dose) was “completely inhibited or reduced serum IL-10 levels” and the “inhibition or reduction of serum IL-10” value ([6]; single oral dose 100 mg/kg, 12 hours post dose) was “completely inhibited or reduced serum IL-10 levels”. For the same molecule, the “inhibition or reduction of serum IL-10” value ([6]; single oral dose, 24 hours post dose) was “rebounded at 24 hours post dose”.

— patent US20240299376A1, “METHOD OF TREATING A CONDITION USING A […] EFFECTIVE DOSE OF 1-(1-OXO-1,2-DIHYDROISOQUINOLIN-5-YL)-5-(TRIFLUOROMETHYL)-N-(2-(TRIFLUOROMETHYL)PYRIDIN-4-YL)-1H-PYRAZOLE-4-CARBOXAMIDE” (Janssen Pharmaceutica NV, priority 2021, published 2024)
